Reference: article PMC8160813, “Design, Synthesis, and Evaluation of Dihydropyranopyrazole Derivatives as Novel PDE2 Inhibitors for the Treatment of Alzheimer’s Disease” (Molecules, 2021)

Target: T1, PDE2A (catalytic domain, 580–919) (Homo sapiens, UniProt O00408)
T1 construct: made in house; host or cells: E. coli BL21 (CodonPlus)
Assay: In vitro PDE2 enzymatic inhibition assay (3H-cGMP substrate)
Format: biochemical
Conditions: for inhibition at 0.1 µM / inhibition at 0.5 µM / Inhibition Ratio (%) 0.5 μM: PDE2; for inhibition at 0.1 µM: compound at 0.1 μM, read-out: Inhibition Ratio (%) 0.1 μM; for inhibition at 0.5 µM / Inhibition Ratio (%) 0.5 μM: compound at 0.5 μM; for inhibition at 0.5 µM: read-out: Inhibition Ratio (%) 0.5 μM; for IC50: means ± SD of three experiments, 3H-cGMP, 25 °C, 15 min, read-out: IC50 (nM) against PDE2
Protocol: Purification and expression of the recombinant pET15b-PDE2A plasmid (catalytic domain, 580–919) was performed following our previously reported method. The plasmid pET15b-PDE2A (catalytic domain, 580–919) was transferred to thawed competent E. coli BL21 cells (CodonPlus, Agilent Technologies, Santa Clara, CA, USA), which were grown in 2XYT medium with 100 μg/mL ampicillin and 20 μg/mL chloramphenicol at 37 °C until OD600 = 0.6–0.8. Then, 0.1 mM isopropylthiogalactoside was added for induction, and protein expression was induced by continuing to grow the cells at 16 °C for 24 h. After that, bacteria were collected by centrifugation and frozen overnight at −20 °C. The bacteria containing the recombinant plasmid of the target protein were subjected to cell disruption and passed through a Ni-NTA agarose affinity column, Q-Sepharose ion-exchange column and other steps. The purity can be 95% or more, and a typical purification batch produces 10–20 mg of PDE2A protein from 1.0 L of cell culture.
Using the appropriate concentration of ^3H-cGMP as the substrate, different compound solutions were added to the test group, DMSO was added to the negative control and blank control groups, and EHNA was added to the positive control group, followed by protein solution (the proteins were all diluted with Assay Buffer); Assay Buffer was added to the blank group. The enzymatic reaction was performed at room temperature (25 °C) for 15 min, and then, 0.2 M ZnSO4 was added to inactivate PDE2 and to stop the reaction. Then, 0.2 N Ba(OH)2 solution was added to precipitate the reaction product, and unreacted ^3H-cGMP remained in the supernatant. After mixing the system, it was centrifuged. The radioactivity of the supernatant was measured with a liquid scintillation counter, and the inhibitory activity of the compound against PDE2 was calculated. The above test was repeated three times (the IC50 test generally used 9 concentrations, and the single-point test was directly diluted with DMSO to the required concentration).

T1 sequence (O00408 580-919): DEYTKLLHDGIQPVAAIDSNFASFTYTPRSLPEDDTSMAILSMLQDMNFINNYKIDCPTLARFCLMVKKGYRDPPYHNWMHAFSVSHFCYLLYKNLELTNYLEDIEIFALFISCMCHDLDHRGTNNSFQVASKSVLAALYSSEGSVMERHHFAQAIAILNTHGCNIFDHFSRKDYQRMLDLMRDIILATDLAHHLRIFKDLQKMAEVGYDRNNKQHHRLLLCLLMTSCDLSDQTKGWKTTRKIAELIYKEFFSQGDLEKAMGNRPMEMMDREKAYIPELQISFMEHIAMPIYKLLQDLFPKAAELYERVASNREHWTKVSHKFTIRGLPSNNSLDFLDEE

inhibition at 0.5 µM [%]	Compound	other results
87.3	COc1ccc(OCc2ccc(C(F)(F)F)cc2)c(C2C(C#N)=C(N)Oc3[nH]nc(C)c32)c1 (racemic) [Compound 11h, 6-Amino-4-(5-methoxy-2-((4-(trifluoromethyl)benzyl)oxy)phenyl)-3-methyl-1,4-dihydropyrano[2,3-c]pyrazole-5-carbonitrile]	inhibition at 0.1 µM: 63.3%; IC50: 75.5 ± 2 nM
	CCCCCC[C@@H]([C@@H](C)O)n1cnc2c(N)ncnc21 (racemic) [EHNA, erythro-9-(2-hydroxy-3-nonyl) adenine, reference compound]	IC50: 2460 nM
87.3	COc1ccc(OCc2ccc(C(F)(F)F)cc2)c(C2C(C#N)=C(N)Oc3[nH]nc(C)c32)c1 (single isomer, unassigned; (-)) [(−)-11h]	PDE2 inhibitory activity of resolved isomer (in words) (after chiral resolution of 11h): almost inactive
57.2	COc1ccc(C2C(C#N)=C(N)Oc3[nH]nc(C)c32)cc1OCc1ccc(Cl)cc1 (centres unmarked) [4a (LZ77), 6-Amino-4-(3-((4-chlorobenzyl)oxy)-4-methoxyphenyl)-3-methyl-1,4-dihydropyrano[2,3-c]pyrazole-5-carbonitrile]	inhibition at 0.1 µM: 18.2%; IC50: 407 ± 37.7 nM
67.5	COc1ccc([C@H]2C(C#N)=C(N)Oc3[nH]nc(C)c32)cc1OCc1ccc(Cl)cc1 [(R)-LZ77]	inhibition at 0.1 µM: 30.4%; IC50: 261 ± 11.2 nM
14.1	COc1cc(OCc2ccc(C(F)(F)F)cc2)cc(C2C(C#N)=C(N)Oc3[nH]nc(C)c32)c1 (centres unmarked) [Compound 4b, 6-Amino-4-(3-methoxy-5-((4-(trifluoromethyl)benzyl)oxy)phenyl)-3-methyl-1,4-dihydropyrano[2,3-c]pyrazole-5-carbonitrile]	
43.4	COc1cc(OCc2ccc(Cl)cc2)cc(C2C(C#N)=C(N)Oc3[nH]nc(C)c32)c1 (centres unmarked) [Compound 4c, 6-Amino-4-(3-((4-chlorobenzyl)oxy)-5-methoxyphenyl)-3-methyl-1,4-dihydropyrano[2,3-c]pyrazole-5-carbonitrile]	
13.4	COc1ccc(OC(=O)c2ccc(OC(F)(F)F)cc2)c(C2C(C#N)=C(N)Oc3[nH]nc(C)c32)c1 (centres unmarked) [Compound 8a, 2-(6-Amino-5-cyano-3-methyl-1,4-dihydropyrano[2,3-c]pyrazol-4-yl)-4-methoxyphenyl-4-(trifluoromethoxy)benzoate]	
39.1	COc1ccc(OC(=O)c2ccc(C(F)(F)F)cc2)c(C2C(C#N)=C(N)Oc3[nH]nc(C)c32)c1 (centres unmarked) [Compound 8b, 2-(6-Amino-5-cyano-3-methyl-1,4-dihydropyrano[2,3-c]pyrazol-4-yl)-4-methoxyphenyl-4-(trifluoromethyl)benzoate]	
4.12	COc1ccc(OC(=O)CCc2ccc(Cl)cc2)c(C2C(C#N)=C(N)Oc3[nH]nc(C)c32)c1 (centres unmarked) [Compound 8c, 2-(6-Amino-5-cyano-3-methyl-1,4-dihydropyrano[2,3-c]pyrazol-4-yl)-4-methoxyphenyl-3-(4-chlorophenyl)propanoate]	
6.12	COc1ccc(OC(=O)CCCc2ccc(Cl)cc2)c(C2C(C#N)=C(N)Oc3[nH]nc(C)c32)c1 (centres unmarked) [Compound 8d, 2-(6-Amino-5-cyano-3-methyl-1,4-dihydropyrano[2,3-c]pyrazol-4-yl)-4-methoxyphenyl-4-(4-chlorophenyl)butanoate]	
27	COc1ccc(COc2cc(OC)ccc2C2C(C#N)=C(N)Oc3[nH]nc(C)c32)cc1 (centres unmarked) [Compound 11a, 6-Amino-4-(4-methoxy-2-((4-methoxybenzyl)oxy)phenyl)-3-methyl-1,4-dihydropyrano[2,3-c]pyrazole-5-carbonitrile]	
14.3	COc1ccc(C2C(C#N)=C(N)Oc3[nH]nc(C)c32)c(OCc2ccccc2)c1 (centres unmarked) [Compound 11b, 6-Amino-4-(2-(benzyloxy)-4-methoxyphenyl)-3-methyl-1,4-dihydropyrano [2,3-c] pyrazole-5-carbonitrile]	
29	COc1ccc(C2C(C#N)=C(N)Oc3[nH]nc(C)c32)c(OCc2ccc(Cl)cc2)c1 (centres unmarked) [Compound 11c, 6-Amino-4-(2-((4-chlorobenzyl)oxy)-4-methoxyphenyl)-3-methyl-1,4-dihydropyrano[2,3-c]pyrazole-5-carbonitrile]	
17.7	COc1ccc(OCc2ccccc2)c(C2C(C#N)=C(N)Oc3[nH]nc(C)c32)c1 (centres unmarked) [Compound 11d, 6-Amino-4-(2-(benzyloxy)-5-methoxyphenyl)-3-methyl-1,4-dihydropyrano [2,3-c] pyrazole-5-carbonitrile]	
48	COc1ccc(COc2ccc(OC)cc2C2C(C#N)=C(N)Oc3[nH]nc(C)c32)cc1 (centres unmarked) [Compound 11e, 6-Amino-4-(5-methoxy-2-((4-methoxybenzyl)oxy)phenyl)-3-methyl-1,4-dihydropyrano[2,3-c]pyrazole-5-carbonitrile]	inhibition at 0.1 µM: 17.5%; IC50: 458 ± 16.2 nM
79.2	COc1ccc(OCc2ccc(Cl)cc2)c(C2C(C#N)=C(N)Oc3[nH]nc(C)c32)c1 (centres unmarked) [Compound 11f, 6-Amino-4-(2-((4-chlorobenzyl)oxy)-5-methoxyphenyl)-3-methyl-1,4-dihydropyrano[2,3-c]pyrazole-5-carbonitrile]	inhibition at 0.1 µM: 48.1%; IC50: 115 ± 1.3 nM
44.4	COc1ccc(OCc2ccc(F)cc2)c(C2C(C#N)=C(N)Oc3[nH]nc(C)c32)c1 (centres unmarked) [Compound 11g, 6-Amino-4-(2-((4-fluorobenzyl)oxy)-5-methoxyphenyl)-3-methyl-1,4-dihydropyrano[2,3-c]pyrazole-5-carbonitrile]	inhibition at 0.1 µM: 15.1%; IC50: 807 ± 15.3 nM
48.8	COc1ccc(OCc2ccc(OC(F)(F)F)cc2)c(C2C(C#N)=C(N)Oc3[nH]nc(C)c32)c1 (centres unmarked) [Compound 11i, 6-Amino-4-(5-methoxy-2-((4-(trifluoromethoxy)benzyl)oxy)phenyl)-3-methyl-1,4-dihydropyrano[2,3-c]pyrazole-5-carbonitrile]	
0	Cc1n[nH]c2c1C(c1cc(C(C)(C)C)ccc1OCc1ccc(C(F)(F)F)cc1)C(C#N)=C(N)O2 (centres unmarked) [Compound 11j, 6-Amino-4-(5-(tert-butyl)-2-((4-(trifluoromethyl)benzyl)oxy)phenyl)-3-methyl-1,4-dihydropyrano[2,3-c]pyrazole-5-carbonitrile]	Inhibition Ratio (%) 0.5 μM: no inhibition
72	Cc1ccc(OCc2ccc(C(F)(F)F)cc2)c(C2C(C#N)=C(N)Oc3[nH]nc(C)c32)c1 (centres unmarked) [Compound 11k, 6-Amino-3-methyl-4-(5-methyl-2-((4-(trifluoromethyl)benzyl)oxy)phenyl)-1,4-dihydropyrano[2,3-c]pyrazole-5-carbonitrile]	inhibition at 0.1 µM: 38.3%; IC50: 154 ± 3.3 nM
13.4	Cc1n[nH]c2c1C(c1cc(OCc3ccc(C(F)(F)F)cc3)ccc1OCc1ccc(C(F)(F)F)cc1)C(C#N)=C(N)O2 (centres unmarked) [Compound 11l, 6-Amino-4-(2,5-bis((4-(trifluoromethyl)benzyl)oxy)phenyl)-3-methyl-1,4-dihydropyrano[2,3-c]pyrazole-5-carbonitrile]	
0	Cc1n[nH]c2c1C(c1cc(O)ccc1OCc1ccc(C(F)(F)F)cc1)C(C#N)=C(N)O2 (centres unmarked) [Compound 11m, 6-Amino-4-(5-hydroxy-2-((4-(trifluoromethyl)benzyl)oxy)phenyl)-3-methyl-1,4-dihydropyrano[2,3-c]pyrazole-5-carbonitrile]	Inhibition Ratio (%) 0.5 μM: no inhibition
20.7	COc1ccc(OCCc2ccc(C(F)(F)F)cc2)c(C2C(C#N)=C(N)Oc3[nH]nc(C)c32)c1 (centres unmarked) [Compound 11n, 6-Amino-4-(5-methoxy-2-(4-(trifluoromethyl)phenethoxy)phenyl)-3-methyl-1,4-dihydropyrano[2,3-c]pyrazole-5-carbonitrile]	
8.2	COc1ccc(OCCCc2ccc(C(F)(F)F)cc2)c(C2C(C#N)=C(N)Oc3[nH]nc(C)c32)c1 (centres unmarked) [Compound 11o, 6-Amino-4-(5-methoxy-2-(3-(4-(trifluoromethyl)phenyl)propoxy)phenyl)-3-methyl-1,4-dihydropyrano[2,3-c]pyrazole-5-carbonitrile]	
17.4	Cc1n[nH]c2c1C(c1cc(OC(F)(F)F)ccc1OCc1ccc(C(F)(F)F)cc1)C(C#N)=C(N)O2 (centres unmarked) [Compound 11p, 6-Amino-3-methyl-4-(5-(trifluoromethoxy)-2-((4-(trifluoromethyl)benzyl)oxy)phenyl)-1,4-dihydropyrano[2,3-c]pyrazole-5-carbonitrile]	
6.6	Cc1n[nH]c2c1C(c1cc(OC(F)F)ccc1OCc1ccc(C(F)(F)F)cc1)C(C#N)=C(N)O2 (centres unmarked) [Compound 11q, 6-Amino-4-(5-(difluoromethoxy)-2-((4-(trifluoromethyl)benzyl)oxy)phenyl)-3-methyl-1,4-dihydropyrano[2,3-c]pyrazole-5-carbonitrile]	
